Measured values published in patent publication US20240254118A1, “PRMT5 INHIBITORS AND USES THEREOF” (Gilead Sciences, Inc., priority 2022, published 2024).

Experiments:
[1] = test system: SDMA signal (PRMT5 inhibition) in HCT116 MTAP-deleted cells; experiment: Symmetric di-methyl arginine image-based high content screen assay (SDMA assay), HCT116 MTAP-deleted; format: cell-based; conditions: SDMA assay; for EC50: Homo sapiens, HCT-116, 72 h, 3 days of treatment, cell line not given, taken as HCT116 MTAP-deleted, read-out: EC50 (SDMA assay); for EC50 selectivity (SDMA assay): taken as HCT116 WT versus MTAP-deleted
Outline: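 Read-out: per-cell mean SDMA immunofluorescence (Alexa Fluor 488 secondary), cells segmented by DAPI on a high-content imager. Compound exposure in HCT116 MTAP-deleted cells lasted until fixation on Day 3; overnight 4° C primary anti-SDMA antibody staining.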

[2] = test system: HCT116 MTAP-deleted cells; experiment: Cell viability assay (CellTiter-Glo, 7 days), HCT116 MTAP-deleted; conditions: Homo sapiens, HCT-116, 168 h

SMILES	EC50 [1] [nM]	EC50 selectivity (SDMA assay) [1]	CC50 [2] [nM]
CN(C(=O)C1CC1)N(Cc1ccc(C(F)(F)F)cc1)C(=O)c1ccc2nc(N)c3cnn(C)c3c2c1 [Example 343, 4-amino-N′-(cyclopropanecarbonyl)-N′,1-dimethyl-N-(4-(trifluoromethyl)benzyl)-1H-pyrazolo[4,3-c]quinoline-8-carbohydrazide]	< 1	96	< 100
CN(C(=O)C1CC1)N(Cc1ccc(C(F)(F)F)cc1F)C(=O)c1ccc2nc(N)c3cnn(C)c3c2c1 [Example 344, 4-amino-N′-(cyclopropanecarbonyl)-N-(2-fluoro-4-(trifluoromethyl)benzyl)-N′,1-dimethyl-1H-pyrazolo[4,3-c]quinoline-8-carbohydrazide]	< 1	48	< 100
Cn1ncc2c(N)nc3ccc(C(=O)N(Cc4ccc(C(F)(F)F)cn4)N4CC5(CC(F)(F)C5)OC4=O)cc3c21 [Example 345, 4-amino-N-(2,2-difluoro-6-oxo-5-oxa-7-azaspiro[3.4]octan-7-yl)-1-methyl-N-((5-(trifluoromethyl)pyridin-2-yl)methyl)-1H-pyrazolo[4,3-c]quinoline-8-carboxamide]	1 to 5	152	100 to 1000
Cn1ncc2c(N)nc3ccc(C(=O)N(NC(=O)C4CC4)C4COc5cc(C(F)(F)F)ccc54)cc3c21 (stereo not drawn) [Example 349, 4-amino-N′-(cyclopropanecarbonyl)-1-methyl-N-(6-(trifluoromethyl)-2,3-dihydrobenzofuran-3-yl)-1H-pyrazolo[4,3-c]quinoline-8-carbohydrazide]	< 1	13	< 100
CCOC(=O)NN(C(=O)c1ccc2nc(N)c3cnn(C)c3c2c1)C1COc2cc(C(F)(F)F)ccc21 (stereo not drawn) [Example 350, ethyl 2-(4-amino-1-methyl-1H-pyrazolo[4,3-c]quinoline-8-carbonyl)-2-(6-(trifluoromethyl)-2,3-dihydrobenzofuran-3-yl)hydrazine-1-carboxylate]	< 1	42	< 100
CC(=O)N(C)N(Cc1ccc(C(F)(F)F)c(F)c1)C(=O)c1ccc2nc(N)c3cnn(C)c3c2c1 [Example 351, N′-acetyl-4-amino-N-(3-fluoro-4-(trifluoromethyl)benzyl)-N′,1-dimethyl-1H-pyrazolo[4,3-c]quinoline-8-carbohydrazide]	1 to 5	33	< 100
Cn1ncc2c(N)nc3ccc(C(=O)N(Cc4ccc(C(F)(F)F)cn4)N4CC(F)(F)C4)cc3c21 [Example 359, 4-amino-N-(3,3-difluoroazetidin-1-yl)-1-methyl-N-((5-(trifluoromethyl)pyridin-2-yl)methyl)-1H-pyrazolo[4,3-c]quinoline-8-carboxamide]	< 1	320	< 100
CN(C(=O)C1CC1)N(Cc1ncc(Cl)cc1F)C(=O)c1ccc2nc(N)c3cnn(C)c3c2c1 [Example 360, 4-amino-N-((5-chloro-3-fluoropyridin-2-yl)methyl)-N′-(cyclopropanecarbonyl)-N′,1-dimethyl-1H-pyrazolo[4,3-c]quinoline-8-carbohydrazide]	1 to 5	446	< 100
CN(c1ccsn1)N(Cc1ccc(C(F)(F)F)cn1)C(=O)c1ccc2nc(N)c3cnn(C)c3c2c1 [Example 361]	< 1	34	< 100
Cn1ncc2c(N)nc3ccc(C(=O)N(Cc4ccc(C(F)(F)F)cn4)N4C(=O)O[C@H]5CC[C@H]54)cc3c21 [Example 362, 4-amino-1-methyl-N-((1S,5R)-3-oxo-2-oxa-4-azabicyclo[3.2.0]heptan-4-yl)-N-((5-(trifluoromethyl)pyridin-2-yl)methyl)-1H-pyrazolo[4,3-c]quinoline-8-carboxamide]	1 to 5	468	< 100

Now from value to compound, other results behind:

EC50 [1] [nM]	EC50 selectivity (SDMA assay) [1]	SMILES	CC50 [2] [nM]
1 to 5	233	Cn1ncc2c(N)nc3ccc(C(=O)N(Cc4ccc(F)cc4F)N4CCOCC4)cc3c21 [Example 365, 4-amino-N-(2,4-difluorobenzyl)-1-methyl-N-morpholino-1H-pyrazolo[4,3-c]quinoline-8-carboxamide]	100 to 1000
1 to 5	125	CN(C(=O)C1CC1)N(Cc1ccc(-c2cnn(C(F)(F)F)c2)cc1)C(=O)c1ccc2nc(N)c3cnn(C)c3c2c1 [Example 374, 4-amino-N′-(cyclopropanecarbonyl)-N′,1-dimethyl-N-[[4-[1-(trifluoromethyl)pyrazol-4-yl]phenyl]methyl]pyrazolo[4,3-c]quinoline-8-carbohydrazide]	< 100
1 to 5	141	CC(=O)N(C)N(Cc1ccc(-c2cnn(C(F)(F)F)c2)cc1)C(=O)c1ccc2nc(N)c3cnn(C)c3c2c1 [Example 375, N′-acetyl-4-amino-N′,1-dimethyl-N-[[4-[1-(trifluoromethyl)pyrazol-4-yl]phenyl]methyl]pyrazolo[4,3-c]quinoline-8-carbohydrazide]	< 100
1 to 5	164	CN(C(=O)C1CC1)N(Cc1ccc(-c2cnn(C(F)(F)F)c2)cc1Cl)C(=O)c1ccc2nc(N)c3cnn(C)c3c2c1 [Example 376, 4-amino-N-[[2-chloro-4-[1-(trifluoromethyl)pyrazol-4-yl]phenyl]methyl]-N′-(cyclopropanecarbonyl)-N′,1-dimethyl-pyrazolo[4,3-c]quinoline-8-carbohydrazide]	< 100
1 to 5	167	CN1CCN(N(Cc2ccc(C(F)(F)F)cn2)C(=O)c2ccc3nc(N)c4cnn(C)c4c3c2)C(=O)C1 [Example 382, 4-amino-1-methyl-N-(4-methyl-2-oxo-piperazin-1-yl)-N-[[5-(trifluoromethyl)-2-pyridyl]methyl]pyrazolo[4,3-c]quinoline-8-carboxamide]	< 100
1 to 5	168	CN1CCN(N(Cc2ccc(C(F)(F)F)cn2)C(=O)c2cc3c(cc2F)nc(N)c2cnn(C)c23)C(=O)C1 [Example 383, 4-amino-7-fluoro-1-methyl-N-(4-methyl-2-oxo-piperazin-1-yl)-N-[[5-(trifluoromethyl)-2-pyridyl]methyl]pyrazolo[4,3-c]quinoline-8-carboxamide]	< 100
1 to 5	283	CC(=O)N1CCN(N(Cc2ccc(C(F)(F)F)cn2)C(=O)c2ccc3nc(N)c4cnn(C)c4c3c2)CC1 [Example 384, N-(4-acetylpiperazin-1-yl)-4-amino-1-methyl-N-[[5-(trifluoromethyl)-2-pyridyl]methyl]pyrazolo[4,3-c]quinoline-8-carboxamide]	100 to 1000
1 to 5	52	COCC(=O)N(C)N(Cc1ccc(C(F)(F)F)cn1)C(=O)c1ccc2nc(N)c3cnn(C)c3c2c1 [Example 385, 4-amino-N′-(2-methoxyacetyl)-N′,1-dimethyl-N-[[5-(trifluoromethyl)-2-pyridyl]methyl]pyrazolo[4,3-c]quinoline-8-carbohydrazide]	< 100
